In US6740664B2, “Methods for treating otic and ophthalmic infections” (Alcon, Inc., priority 1998, dated 2004):
Values after ≈ are worked out from the molar mass of the structure shown. Where two headings read alike, the source gives them in different places.

Experiments:
M. alconae = assay: MIC90 against bacteria associated with otic, ophthalmic and nasal infections; type: cell-based, Microbacterium alconae
Excerpt: (§1) The concentrations of the antibiotics of formula (I) in the compositions of the present invention will vary depending on the intended use of the compositions (e.g., treatment of existing infections or prevention of post-surgical infections), and the relative antimicrobial activity of the specific antibiotic selected. The antimicrobial activity of antibiotics is generally expressed as the minimum concentration required to inhibit the growth of a specified pathogen. This concentration is also referred to as the “minimum inhibitory concentration” or “MIC”. The term “MIC90” refers to the minimum concentration of antibiotic required to inhibit the growth of ninety percent (90%) of the strains of a species. The concentration of an antibiotic required to totally kill a specified bacteria is referred to as the “minimum bactericidal concentration” or “MBC”.

[1] = system: S. aureus/methicillin sensitive; assay: as above; type: cell-based
Excerpt: as §1

P. aeruginosa = assay: as above; type: cell-based
Excerpt: as §1

[2] = system: S. epidermidis/methicillin sensitive; assay: as above; type: cell-based
Excerpt: as §1

[3] = system: S. pneumoniae/penicillin resistant; assay: as above; type: cell-based
Excerpt: as §1

[4] = system: S. aureus/methicillin resistant; assay: as above; type: cell-based
Excerpt: as §1

[5] = system: H. influenzae/β-lactamase positive; assay: as above; type: cell-based
Excerpt: as §1

[6] = system: S. epidermidis/methicillin resistant; assay: as above; type: cell-based
Excerpt: as §1

[7] = system: H influenzae/β-lactamase negative; assay: as above; type: cell-based
Excerpt: as §1

[8] = system: S. aureus/quinolone resistant; assay: as above; type: cell-based
Excerpt: as §1

[9] = system: S. pneumoniae/penicillin sensitive; assay: as above; type: cell-based
Excerpt: as §1

M. otitidis = assay: as above; type: cell-based, Microbacterium otitidis
Excerpt: as §1

Microbacterium alconae = assay: In vitro MIC by agar and broth dilution methods (NCCLS M7-A4), clinical isolates; type: cell-based
Procedure: (§2) The activity levels were determined as MIC (minimum inhibitory concentration) values. In order to compare the activity of the compounds of the present invention to other antibiotics, MIC values for representatives quinolones, aminoglycosides, β-lactams and other types of antibiotics were also determined. […] The MCC numbers (e.g., “MCC 10647”) represent separate clinical isolates of the two Microbacterium species tested.

Microbacterium otitidis = assay: as above; type: cell-based
Procedure: as §2

[10] = Microbacterium alconae clinical isolate MCC 11316
[11] = Microbacterium alconae clinical isolate MCC 11558
[12] = Microbacterium alconae clinical isolate MCC 11639
[13] = Microbacterium alconae clinical isolate MCC 11653
[14] = Microbacterium alconae clinical isolate MCC 11699
[15] = Microbacterium otitidis clinical isolate MCC 10647
[16] = Microbacterium otitidis clinical isolate MCC 10810
[17] = Microbacterium otitidis clinical isolate MCC 10990
[18] = Microbacterium otitidis clinical isolate MCC 11495
[19] = Microbacterium otitidis clinical isolate MCC 11676
[20] = Staphylococcus aureus, read-out: MIC90
[21] = Pseudomonas aeruginosa, read-out: MIC90
[22] = Staphylococcus epidermidis, read-out: MIC90
[23] = Streptococcus pneumoniae, read-out: MIC90
[24] = Haemophilus influenzae, read-out: MIC90

Molecule: Moxifloxacin
- MIC90 (M. alconae): 0.25 micrograms per milliliter
- MIC90 [1]: 0.13 micrograms per milliliter
- MIC90 (P. aeruginosa): 8.0 micrograms per milliliter
- MIC90 [2]: 0.25 micrograms per milliliter
- MIC90 [3]: 0.25 micrograms per milliliter
- MIC90 [4]: 4.0 micrograms per milliliter
- MIC90 [5]: 0.06 micrograms per milliliter
- MIC90 [6]: 4.0 micrograms per milliliter
- MIC90 [7]: 0.06 micrograms per milliliter
- MIC90 [8]: 4.0 micrograms per milliliter
- MIC90 [9]: 0.25 micrograms per milliliter
- MIC90 (M. otitidis): 2.0 micrograms per milliliter

Molecule: Neomycin
- minimum inhibitory concentration (MIC) (Microbacterium alconae; [10]): 1.0 micrograms per milliliter
- minimum inhibitory concentration (MIC) (Microbacterium alconae; [11]): 1.0 micrograms per milliliter
- minimum inhibitory concentration (MIC) (Microbacterium alconae; [12]): 1.0 micrograms per milliliter
- minimum inhibitory concentration (MIC) (Microbacterium alconae; [13]): 1.0 micrograms per milliliter
- minimum inhibitory concentration (MIC) (Microbacterium alconae; [14]): 1.0 micrograms per milliliter
- minimum inhibitory concentration (MIC) (Microbacterium otitidis; [15]): 8.0 micrograms per milliliter
- minimum inhibitory concentration (MIC) (Microbacterium otitidis; [16]): 2.0 micrograms per milliliter
- minimum inhibitory concentration (MIC) (Microbacterium otitidis; [17]): 2.0 micrograms per milliliter
- minimum inhibitory concentration (MIC) (Microbacterium otitidis; [18]): 8.0 micrograms per milliliter
- minimum inhibitory concentration (MIC) (Microbacterium otitidis; [19]): 2.0 micrograms per milliliter

Molecule: COc1c(N2CCNC(C)C2)c(F)cc2c(=O)c(C(=O)O)cn(C3CC3)c12 (centres unmarked) [Gatifloxacin]
- MIC90 [1, 20]: 0.25 µg/mL (≈ 0.666 µM)
- MIC90 (P. aeruginosa; [21]): 2 µg/mL (≈ 5.33 µM)
- MIC90 [2, 22]: 0.5 µg/mL (≈ 1.33 µM)
- MIC90 [3, 23]: 0.25 µg/mL (≈ 0.666 µM)
- MIC90 [4, 20]: 8 µg/mL (≈ 21.3 µM)
- MIC90 [5, 24]: 0.06 µg/mL (≈ 0.16 µM)
- MIC90 [6, 22]: 4 µg/mL (≈ 10.7 µM)
- MIC90 [7, 24]: 0.06 µg/mL (≈ 0.16 µM)
- MIC90 [8, 20]: 8 µg/mL (≈ 21.3 µM)
- MIC90 [9, 23]: 0.25 µg/mL (≈ 0.666 µM)

Molecule: Polymyxin B
- minimum inhibitory concentration (MIC) (Microbacterium alconae; [12]): 16 micrograms per milliliter
- minimum inhibitory concentration (MIC) (Microbacterium alconae; [13]): 16 micrograms per milliliter
- minimum inhibitory concentration (MIC) (Microbacterium alconae; [14]): 16 micrograms per milliliter
- minimum inhibitory concentration (MIC) (Microbacterium otitidis; [16]): 260 micrograms per milliliter
- minimum inhibitory concentration (MIC) (Microbacterium otitidis; [17]): 260 micrograms per milliliter
- minimum inhibitory concentration (MIC) (Microbacterium otitidis; [19]): 16 micrograms per milliliter

Molecule: Gentamicin
- minimum inhibitory concentration (MIC) (Microbacterium alconae; [10]): 2.0 micrograms per milliliter
- minimum inhibitory concentration (MIC) (Microbacterium alconae; [11]): 2.0 micrograms per milliliter
- minimum inhibitory concentration (MIC) (Microbacterium alconae; [12]): 2.0 micrograms per milliliter
- minimum inhibitory concentration (MIC) (Microbacterium alconae; [13]): 2.0 micrograms per milliliter
- minimum inhibitory concentration (MIC) (Microbacterium alconae; [14]): 2.0 micrograms per milliliter
- minimum inhibitory concentration (MIC) (Microbacterium otitidis; [15]): 8.0 micrograms per milliliter
- minimum inhibitory concentration (MIC) (Microbacterium otitidis; [16]): 4.0 micrograms per milliliter
- minimum inhibitory concentration (MIC) (Microbacterium otitidis; [17]): 4.0 micrograms per milliliter
- minimum inhibitory concentration (MIC) (Microbacterium otitidis; [18]): 16 micrograms per milliliter
- minimum inhibitory concentration (MIC) (Microbacterium otitidis; [19]): 4.0 micrograms per milliliter

Molecule: Grepafloxacin
- MIC90 [1]: 0.13 micrograms per milliliter
- MIC90 (P. aeruginosa): 8.0 micrograms per milliliter
- MIC90 [2]: 0.13 micrograms per milliliter
- MIC90 [3]: 0.25 micrograms per milliliter
- MIC90 [4]: 0.13 micrograms per milliliter
- MIC90 [5]: 0.008 micrograms per milliliter
- MIC90 [6]: 0.13 micrograms per milliliter
- MIC90 [7]: 0.008 micrograms per milliliter
- MIC90 [8]: 0.13 micrograms per milliliter
- MIC90 [9]: 0.25 micrograms per milliliter

Molecule: N[C@@H]1[C@H]2CN(c3nc4c(cc3F)c(=O)c(C(=O)O)cn4-c3ccc(F)cc3F)C[C@@H]12 [Trovafloxacin]
- MIC90 [1, 20]: 0.03 µg/mL (≈ 0.0721 µM)
- MIC90 (P. aeruginosa; [21]): 2 µg/mL (≈ 4.8 µM)
- MIC90 [2, 22]: 0.06 µg/mL (≈ 0.144 µM)
- MIC90 [3, 23]: 0.25 µg/mL (≈ 0.6 µM)
- MIC90 [4, 20]: 2 µg/mL (≈ 4.8 µM)
- MIC90 [5, 24]: 0.03 µg/mL (≈ 0.0721 µM)
- MIC90 [6, 22]: 4 µg/mL (≈ 9.61 µM)
- MIC90 [7, 24]: 0.03 µg/mL (≈ 0.0721 µM)
- MIC90 [8, 20]: 4 µg/mL (≈ 9.61 µM)
- MIC90 [9, 23]: 0.25 µg/mL (≈ 0.6 µM)
